Values quoted from earlier work in patent US9198430B2, “Anti-parasitic composition comprising a macrocyclic lactone and levamisole and method of treatment of parasitic infestation” (BAYER NEW ZEALAND LIMITED, priority 2011, dated 2015).
Read-outs that look alike come from different tables or passages of the source.

Conditions: unlabelled doramectin 0.2 mg/kg bodyweight

For `CO[C@H]1C[C@H](O[C@H]2[C@H](C)O[C@@H](O[C@@H]3/C(C)=C/C[C@@H]4C[C@@H](C[C@]5(C=C[C@H](C)[C@@H](C6CCCCC6)O5)O4)OC(=O)[C@@H]4C=C(C)[C@@H](O)[C@H]5OC/C(=C\C=C\[C@@H]3C)[C@]54O)C[C@@H]2OC)O[C@@H](C)[C@@H]1O` [doramectin, Doramectin], the “Residues of Doramectin, Fat” value (Day 21) is listed as 182 µg/kg, the “Residues of Doramectin, Injection (site)” value (Day 21) is listed as 1900 µg/kg and the “Residues of Doramectin, Kidney” value (Day 21) is listed as 11 µg/kg. For the same compound, the “Residues of Doramectin, Liver” value (Day 21) was 107 µg/kg, the “Residues of Doramectin, Muscle” value (Day 21) was under 7 µg/kg and the “Residues of Doramectin, Fat” value (Day 28) was 94 µg/kg. The “Residues of Doramectin, Injection (site)” value (Day 28) was 380 µg/kg, the “Residues of Doramectin, Kidney” value (Day 28) was 8.8 µg/kg and the “Residues of Doramectin, Liver” value (Day 28) was 66 µg/kg. The “Residues of Doramectin, Muscle” value (Day 28) was under 4 µg/kg, the “Residues of Doramectin, Fat” value (Day 35) was 57 µg/kg and the “Residues of Doramectin, Injection (site)” value (Day 35) was 930 µg/kg. For the same compound, the “Residues of Doramectin, Kidney” value (Day 35) was under 4.5 µg/kg, the “Residues of Doramectin, Liver” value (Day 35) was 29 µg/kg and the “Residues of Doramectin, Muscle” value (Day 35) was under 3 µg/kg.
